{"source": "patent US20060058390A1", "about": "(priority 2004, published 2006)", "key": {"[1]": {"test_system": "oxidative stress-induced ototoxicity and nephrotoxicity", "settings": "in vivo; cited from earlier work"}, "[2]": {"settings": "cited from earlier work"}, "[3]": {"settings": "male, Sprague-Dawley, rat, in vivo, 150 mg/kg", "protocol": "Twenty-six male Sprague-Dawley rats weighing approximately 200 to 300 g were used for the study. The jugular vein of six animals were cannulated and the rest of the animals were used without any further preparation.\nDosing was conducted on two occasions. […] The drug was prepared in a suspension formulation in accordance with the present invention. The blood samples (approximately 0.5 mL/sample) were collected from each animal at predose, 15, 30 minutes, 1, 2, 4 and 6 hours postdose into microtainer tubes containing lithium heparin as an anticoagulant. Replacement blood was infused into each animal following each blood draw. […] The drug was prepared in a solution formulation. […] Blood samples were collected from each animal via the orbital sinus at predose, 2, 15, 30 minutes, 1, 2, 4 and 6 hours postdose. Each animal was bled twice. The blood was centrifuged immediately and the resulting plasma in tubes was flash frozen in liquid nitrogen and stored at approximately −70° C. until analysis.\nL-Methinione can also be detected under the same HPLC conditions.\nDescriptive pharmacokinetic parameters were determined by standard model independent methods (Gibaldi, M. and Perrier, D. Pharmacokinetics, Second Edition, Marcel Dekker, Inc., New York, 1982) based on the mean plasma concentration-time data. The plasma concentrations were rounded to one decimal place before the calculation. Plasma samples with concentrations below the quantifiable limit (BQL) were assigned values of zero for the calculation of mean plasma concentration.\nThe mean plasma concentration-time profiles are depicted in FIG. 2."}}, "note": "Where two headings read alike, the source gives them in different places.", "data": [{"molecule": "CSCC[C@H](N)C(=O)O", "note": "[L-Methionine, L-methionine]", "values": [{"measurement": "effect on oxidative stress-induced ototoxicity and nephrotoxicity associated with cisplatin", "setting": "[1]", "result": "effectively prevent"}, {"measurement": "dosage reported safe for chronic administration", "setting": "[2]; adult", "result": 20, "unit": "g/day"}, {"measurement": "side-effects in human studies", "setting": "[2]; most human studies", "result": "no side-effects"}, {"measurement": "AUC(0-inf) of L-Methionine", "setting": "[3]; iv", "result": 326.0, "unit": "µg·h/mL"}, {"measurement": "Cmax of L-Methionine", "setting": "[3]; iv", "result": 161.7, "unit": "µg/mL"}, {"measurement": "T1/2 (half-life) of L-Methionine", "setting": "[3]; iv", "result": 1.9, "unit": "h"}, {"measurement": "Tmax of L-Methionine", "setting": "[3]; iv", "result": 0.50, "unit": "h"}, {"measurement": "Mean Plasma Concentrations of L-Methionine", "setting": "[3]; iv, 0 h", "result": 132.6, "unit": "ng/mL"}, {"measurement": "Mean Plasma Concentrations of L-Methionine", "setting": "[3]; iv, 0.03 h", "result": 132.6, "unit": "ng/mL"}, {"measurement": "Mean Plasma Concentrations of L-Methionine", "setting": "[3]; iv, 0.25 h", "result": 146.5, "unit": "ng/mL"}, {"measurement": "Mean Plasma Concentrations of L-Methionine", "setting": "[3]; iv, 0.5 h", "result": 161.7, "unit": "ng/mL"}, {"measurement": "Mean Plasma Concentrations of L-Methionine", "setting": "[3]; iv, 1 h", "result": 76.1, "unit": "ng/mL"}, {"measurement": "Mean Plasma Concentrations of L-Methionine", "setting": "[3]; iv, 2 h", "result": 45.4, "unit": "ng/mL"}, {"measurement": "Mean Plasma Concentrations of L-Methionine", "setting": "[3]; iv, 4 h", "result": 23.2, "unit": "ng/mL"}, {"measurement": "Mean Plasma Concentrations of L-Methionine", "setting": "[3]; iv, 6 h", "result": 10.7, "unit": "ng/mL"}, {"measurement": "AUC(0-inf) of L-Methionine", "setting": "[3]; po", "result": 450.2, "unit": "µg·h/mL"}, {"measurement": "Cmax of L-Methionine", "setting": "[3]; po", "result": 47.2, "unit": "µg/mL"}, {"measurement": "T1/2 (half-life) of L-Methionine", "setting": "[3]; po", "result": 9.9, "unit": "h"}, {"measurement": "Tmax of L-Methionine", "setting": "[3]; po", "result": 2.00, "unit": "h"}, {"measurement": "Mean Plasma Concentrations of L-Methionine", "setting": "[3]; po, 0 h", "result": 7.8, "unit": "ng/mL"}, {"measurement": "Mean Plasma Concentrations of L-Methionine", "setting": "[3]; po, 0.5 h", "result": 33.1, "unit": "ng/mL"}, {"measurement": "Mean Plasma Concentrations of L-Methionine", "setting": "[3]; po, 1 h", "result": 32.0, "unit": "ng/mL"}, {"measurement": "Mean Plasma Concentrations of L-Methionine", "setting": "[3]; po, 2 h", "result": 47.2, "unit": "ng/mL"}, {"measurement": "Mean Plasma Concentrations of L-Methionine", "setting": "[3]; po, 4 h", "result": 22.2, "unit": "ng/mL"}, {"measurement": "Mean Plasma Concentrations of L-Methionine", "setting": "[3]; po, 6 h", "result": 18.8, "unit": "ng/mL"}, {"measurement": "Mean Plasma Concentrations of L-Methionine", "setting": "[3]; po, 12 h", "result": 12.6, "unit": "ng/mL"}]}]}
